Laboratory results from ChEMBL document CHEMBL5352476, “A comprehensive overview of Artemisinin and its derivatives as anticancer agents” (Eur J Med Chem, 2023).

What was measured:
786-0 = assay: Antiproliferative activity against human 786-0 cells assessed as inhibition of cell growth incubated for 48 hrs by MTT assay; format: functional, cell-based; conditions: 786-0, 48 h
SK-OV-3 = assay: Antiproliferative activity against human SK-OV-3 cells assessed as inhibition of cell growth incubated for 48 hrs by MTT assay; format: functional, cell-based; conditions: SK-OV-3, 48 h
[1] = Selectivity index, ratio of IC50 for antiproliferative activity against HEK293T cells to IC50 for antiproliferative activity against human HepG2 cells; format: toxicity, cell-based; conditions: HEK293T cells versus HepG2 cells, read-out: Ratio IC50
HepG2 [2] = assay: Antiproliferative activity against human HepG2 cells assessed as inhibition of cell growth incubated for 48 hrs by MTT assay; format: functional, cell-based; conditions: HepG2, 48 h
HEK-293T = assay: Antiproliferative activity against HEK293T cells assessed as inhibition of cell growth incubated for 48 hrs by MTT assay; format: functional, cell-based; conditions: Homo sapiens
Calu-1 = assay: Antiproliferative activity against human Calu-1 cells assessed as inhibition of cell growth incubated for 48 hrs by MTT assay; format: functional, cell-based; conditions: Calu-1, 48 h
SK-BR-3 = assay: Antiproliferative activity against human SK-BR-3 cells assessed as inhibition of cell growth incubated for 48 hrs by MTT assay; format: functional, cell-based; conditions: SK-BR-3, 48 h
HepG2 [3] = assay: Potency index, ratio of vincristine IC50 to test compound IC50 for antiproliferative activity against human HepG2 cells assessed as inhibition of cell growth incubated for 48 hrs by MTT assay; format: functional
HepG2 [4] = assay: Antiproliferative activity against human HepG2 cells assessed as inhibition of cell growth by MTT assay; format: functional, cell-based
MCF7 = assay: Antiproliferative activity against human MCF7 cells assessed as inhibition of cell growth incubated for 72 hrs by MTT assay; format: functional, cell-based; conditions: MCF7, 72 h
U-118-MG = assay: Antiproliferative activity against human U-118-MG cells assessed as inhibition of cell growth incubated for 72 hrs by MTT assay; format: functional, cell-based
A549 [5] = assay: Antiproliferative activity against human A549 cells assessed as inhibition of cell growth incubated for 72 hrs by MTT assay; format: functional, cell-based; conditions: A549, 72 h
U-87 MG = assay: Antiproliferative activity against human U-87 MG cells assessed as inhibition of cell growth incubated for 72 hrs by MTT assay; format: functional, cell-based, U-87MG ATCC
SH-SY5Y = assay: Antiproliferative activity against human SH-SY5Y cells assessed as inhibition of cell growth incubated for 72 hrs by MTT assay; format: functional, cell-based
HCT-116 = assay: Antiproliferative activity against human HCT-116 cells assessed as inhibition of cell growth incubated for 72 hrs by MTT assay; format: functional, cell-based; conditions: HCT-116, 72 h
PC-12 = assay: Antiproliferative activity against PC-12 cells assessed as inhibition of cell growth incubated for 72 hrs by MTT assay; format: functional, cell-based; conditions: Rattus norvegicus, PC-12, 72 h
[6] = Cytotoxicity against human L02 cells assessed as inhibition of cell growth incubated for 72 hrs by MTT assay; format: toxicity, cell-based
RPMI-7951 = assay: Antiproliferative activity against human RPMI-7951 cells assessed as inhibition of cell growth incubated for 24 hrs by MTT assay; format: functional, cell-based; conditions: RPMI-7951, 24 h
[7] = Cytotoxicity against human MCF-10A cells assessed as inhibition of cell growth incubated for 96 hrs by MTT assay; format: toxicity, cell-based
MDA-MB-231 [8] = assay: Antiproliferative activity against human MDA-MB-231 cells assessed as inhibition of cell growth incubated for 96 hrs by MTT assay; format: functional, cell-based; conditions: MDA-MB-231, 96 h
HT-29 [9] = assay: Antiproliferative activity against human HT-29 cells overexpressing carbonic anhydrase IX assessed as inhibition of cell growth incubated for 96 hrs under hypoxic condition by MTT assay; format: functional, cell-based; conditions: HT-29, 96 h
HT-29 [10] = assay: Antiproliferative activity against human HT-29 cells assessed as inhibition of cell growth incubated for 96 hrs by MTT assay; format: functional, cell-based; conditions: HT-29, 96 h
HeLa = assay: Antiproliferative activity against human HeLa cells assessed as inhibition of cell growth incubated for 72 hrs by MTT assay; format: functional, cell-based
MDA-MB-231 [11] = assay: Antiproliferative activity against human MDA-MB-231 cells assessed as inhibition of cell growth incubated for 72 hrs by MTT assay; format: functional, cell-based; conditions: MDA-MB-231, 72 h
HT-29 [12] = assay: Antiproliferative activity against human HT-29 cells assessed as inhibition of cell growth incubated for 72 hrs by MTT assay; format: functional, cell-based; conditions: HT-29, 72 h
NCI-H460 = assay: Antiproliferative activity against human NCI-H460 cells assessed as inhibition of cell growth incubated for 72 hrs by MTT assay; format: functional, cell-based; conditions: NCI-H460, 72 h
SK-MEL3 = assay: Antiproliferative activity against human SK-MEL3 cells assessed as inhibition of cell growth incubated for 24 hrs by MTT assay; format: functional, cell-based; conditions: SK-MEL3, 24 h
[13] = Antiproliferative activity against mouse Lewis lung carcinoma cell line assessed as inhibition of cell growth incubated for 48 hrs by MTT assay; format: functional, cell-based
A549 [14] = assay: Antiproliferative activity against human A549 cells assessed as inhibition of cell growth incubated for 96 hrs by MTT assay; format: functional, cell-based; conditions: A549, 96 h
A549 [15] = assay: Antitumor activity against human A549 cells xenografted in nude mouse assessed as tumor growth inhibition rate relative to control; format: functional

Q: With `C[C@H]1[C@H](N2CCN(P(=O)(OCc3cncs3)N(CCCCl)CCCCl)CC2)O[C@@H]2O[C@@]3(C)CC[C@H]4[C@H](C)CC[C@@H]1[C@@]24OO3` (some centres not stated) as the compound, how does the IC50 (786-0) read?
A: 12500 nM

Q: And the IC50 (SK-OV-3)?
A: 12500 nM

Q: What about the selectivity ratio [1] of the same compound?
A: 16

Q: And the IC50 (HepG2 [2])?
A: 12500 nM

Q: And the IC50 (HEK-293T)?
A: 12500 nM

Q: What about the IC50 (Calu-1) of the same compound?
A: 12500 nM

Q: And the IC50 (SK-BR-3)?
A: 12500 nM

Q: What about the “Ratio IC50” value (HepG2 [3]) of the same compound?
A: 7.4

Q: Which IC50 (HepG2 [4]) does the source give for `CCCCCCCCCCCCOC(=O)C[C@H]1O[C@@H]2O[C@@]3(C)CC[C@H]4[C@H](C)CC[C@@H]([C@H]1C)[C@@]24OO3` here?
A: 720 nM

Q: For `C[C@@H]1CC[C@H]2[C@@H](C)C(N3CCN(C(=O)Oc4ccc(SC(F)(F)F)cc4)CC3)O[C@@H]3O[C@@]4(C)CC[C@@H]1[C@]32OO4` (some centres not stated), which IC50 (MCF7) is on record?
A: ≥ 120 nM

Q: And the IC50 (U-118-MG)?
A: ≥ 120 nM

Q: And the IC50 (A549 [5])?
A: ≥ 120 nM

Q: What about the IC50 (U-87 MG) of the same compound?
A: ≥ 120 nM

Q: What about the IC50 (SH-SY5Y) of the same compound?
A: ≥ 120 nM

Q: What about the IC50 (HCT-116) of the same compound?
A: 120 nM

Q: What about the IC50 (PC-12) of the same compound?
A: ≥ 120 nM

Q: What about the IC50 at 72 h [6] of the same compound?
A: 12500 nM

Q: For `CCCCCCCCNC(=O)C[C@H]1O[C@@H]2O[C@@]3(C)CC[C@H]4[C@H](C)CC[C@@H]([C@H]1C)[C@@]24OO3`, which IC50 (HepG2 [4]) is on record?
A: 9500 nM

Q: For `C[C@H]1[C@H](OC(=O)CCC(=O)NCCc2ccc(OC(=O)CCC(=O)O[C@@H]3O[C@@H]4O[C@@]5(C)CC[C@H]6[C@H](C)CC[C@@H]([C@H]3C)[C@@]46OO5)cc2)O[C@@H]2O[C@@]3(C)CC[C@H]4[C@H](C)CC[C@@H]1[C@@]24OO3`, which IC50 (RPMI-7951) is on record?
A: 2450 nM

Q: For `C[C@H]1[C@@H](OCCc2cn(-c3ccc(S(N)(=O)=O)cc3)nn2)O[C@@H]2O[C@@]3(C)CC[C@H]4[C@H](C)CC[C@@H]1[C@@]24OO3`, which IC50 at 96 h [7] is on record?
A: 78000 nM

Q: And the IC50 (MDA-MB-231 [8])?
A: 1920 nM

Q: What about the IC50 (HT-29 [9]) of the same compound?
A: 650 nM

Q: What about the IC50 (HT-29 [10]) of the same compound?
A: 1920 nM

Q: With `COc1ccc(OC)c(/C=C/C(=O)c2ccc(OCC(=O)N[C@@H]3O[C@@H]4O[C@@]5(C)CC[C@H]6[C@H](C)CC[C@@H]([C@H]3C)[C@@]46OO5)cc2)c1` as the compound, how does the IC50 (HeLa) read?
A: 190 nM

Q: And the IC50 (MDA-MB-231 [11])?
A: 190 nM

Q: What about the IC50 (HT-29 [12]) of the same compound?
A: 190 nM

Q: What about the IC50 (NCI-H460) of the same compound?
A: 190 nM

Q: Which IC50 (HepG2 [4]) does the source give for `CCCCCCCCCCCCC(=O)C[C@H]1O[C@@H]2O[C@@]3(C)CC[C@H]4[C@H](C)CC[C@@H]([C@H]1C)[C@@]24OO3` here?
A: 1400 nM

Q: Which IC50 (SK-MEL3) does the source give for `COc1cc(/C=C\C(=O)CC(=O)/C=C\c2ccc(OC(=O)O[C@@H]3O[C@@H]4O[C@@]5(C)CC[C@H]6[C@H](C)CC[C@@H]([C@H]3C)[C@@]46OO5)c(OC)c2)ccc1OC(=O)CCC(=O)O[C@@H]1O[C@@H]2O[C@@]3(C)CC[C@H]4[C@H](C)CC[C@@H]([C@H]1C)[C@@]24OO3` here?
A: 3000 nM

Q: What does the source list for `COc1ccc(OC)c(/C=C/C(=O)c2ccc(OCC(=O)N[C@H]3O[C@@H]4O[C@@]5(C)CC[C@H]6[C@H](C)CC[C@@H]([C@H]3C)[C@@]46OO5)cc2)c1`?
A: IC50 (HeLa): 120 nM; IC50 (MDA-MB-231 [11]): 120 nM; IC50 (HT-29 [12]): 120 nM; IC50 (NCI-H460): 120 nM

Q: For `C[C@@H]1CC[C@H]2[C@@H](C)C(=O)O[C@@H]3O[C@@]4(C)CC[C@@H]1[C@]32OO4` [ARTEMISININ], which IC50 (HepG2 [4]) is on record?
A: 97000 nM

Q: What does the source list for `C[C@H]1[C@@H](O)O[C@@H]2O[C@@]3(C)CC[C@H]4[C@H](C)CC[C@@H]1[C@@]24OO3` [ARTENIMOL]?
A: IC50 [13]: 53100 nM; IC50 (A549 [14]): 230 nM; inhibition (INH) (A549 [15]): 54.3%
